# According to US8338454B2, “Nitrile derivatives and their pharmaceutical use and compositions” (Cellceutix Corporation, priority 2009, dated 2012):
# Like-named read-outs stand apart in the source and are kept apart here.
# What was measured:
# [1] = test system: Colo 205; assay: Cytotoxicity of Kevetrin, cell viability (MTT); type: cell-based; settings: Homo sapiens; Colo 205 colon carcinoma; continuous exposure for three doubling times; read-out: IC50 Concentration
# Text: (§1) The results are set forth below.
# [2] = test system: DU-145; assay: Cytotoxicity of Kevetrin, cell viability (MTT); type: cell-based; settings: Homo sapiens; DU-145 prostate carcinoma; continuous exposure for three doubling times; read-out: IC50 Concentration
# Text: as §1
# [3] = test system: HCT-116; assay: Cytotoxicity of Kevetrin, cell viability (MTT); type: cell-based; settings: Homo sapiens; HCT-116 colon carcinoma; continuous exposure for three doubling times; read-out: IC50 Concentration
# Text: as §1
# [4] = test system: HT-29; assay: Cytotoxicity of Kevetrin, cell viability (MTT); type: cell-based; settings: Homo sapiens; HT-29 colon carcinoma; continuous exposure for three doubling times; read-out: IC50 Concentration
# Text: as §1
# [5] = test system: LnCap; assay: Cytotoxicity of Kevetrin, cell viability (MTT); type: cell-based; settings: Homo sapiens; LnCap prostate carcinoma; continuous exposure for three doubling times; read-out: IC50 Concentration
# Text: as §1
# [6] = test system: MCF-7; assay: Cytotoxicity of Kevetrin, cell viability (MTT); type: cell-based; settings: Homo sapiens, MCF7; MCF-7 breast carcinoma; continuous exposure for three doubling times; read-out: IC50 Concentration
# Text: as §1
# [7] = test system: SCC 15; assay: Cytotoxicity of Kevetrin, cell viability (MTT); type: cell-based; settings: Homo sapiens; SCC 15 squamous cell carcinoma; continuous exposure for three doubling times; read-out: IC50 Concentration
# Text: as §1
# [8] = test system: SCC-61; assay: Cytotoxicity of Kevetrin, cell viability (MTT); type: cell-based; settings: Homo sapiens; SCC-61 squamous cell carcinoma; continuous exposure for three doubling times; read-out: IC50 Concentration
# Text: as §1
# [9] = test system: SKOV-3; assay: Cytotoxicity of Kevetrin, cell viability (MTT); type: cell-based; settings: Homo sapiens, SK-OV-3; SKOV-3 ovarian carcinoma; continuous exposure for three doubling times; read-out: IC50 Concentration
# Text: as §1
# [10] = test system: SW-480; assay: Cytotoxicity of Kevetrin, cell viability (MTT); type: cell-based; settings: Homo sapiens, SW480; SW-480 colon carcinoma; continuous exposure for three doubling times; read-out: IC50 Concentration
# Text: as §1
# [11] = test system: malignant glioma cells; assay: Viability of human tumor cell lines; type: cell-based
# Text: as §1
# [12] = test system: all tumor cell lines tested; assay: Activity spectra, MTT assay; type: cell-based, human; settings: read-out: average IC50 for all cell lines tested
# Protocol: (§2) The indicated values are calculated as follows: log(IC50 individual cell line−IC50 average). Negative values indicate that the cell line is more sensitive than the average, whereas positive values indicate that the cell line is more resistant than the average.
# as §2, with “average. […] The activity of Kevetrin was more marked than that of cisplatin toward lung, head and neck, breast, ovary, and colon cell lines.” for “average.”
# [13] = test system: DU-145, HCT-116, or HT-29 carcinoma cells; assay: Time dependence of Kevetrin cytotoxicity, MTT assay; type: cell-based, human; settings: exposure 5 minutes to 120 hours; DU-145, HCT-116, HT-29
# Protocol: Human carcinoma cells were exposed to different concentrations of Kevetrin for 5, 10, 20, 30, or 45 minutes or 1, 2, 6, 24, or 120 hours. Cellular viability expressed as IC50 was plotted verses time of Kevetrin exposure as measured using the MTT assay.
# To determine the influence of exposure time on the cytotoxic effects of Kevetrin, DU-145, HCT-116, or HT-29 carcinoma cells were exposed to different concentrations of Kevetrin for 5, 10, 20, 30, or 45 minutes or 1, 2, 6, 24, or 120 hours. […] The time dependence was particularly dramatic for exposure times […]. In contrast, extending the drug exposure time beyond 24 hours had no influence on the cytotoxicity.
# [14] = test system: head and neck cancer cell lines; assay: Activity spectra, MTT assay; type: cell-based, human; settings: three head and neck cancer cell lines
# Protocol: as §2, with “average. […] The activity of Kevetrin was more marked than that of cisplatin toward lung, head and neck, breast, ovary, and colon cell lines.” for “average.”
# [15] = test system: leukemias; assay: Activity spectra, MTT assay; type: cell-based, human
# Protocol: as §2, with “average. […] The activity of Kevetrin was more marked than that of cisplatin toward lung, head and neck, breast, ovary, and colon cell lines.” for “average.”
# [16] = Weight loss due to Kevetrin in tumor bearing mice; type: in vivo
# Protocol: Animal weights of mice following treatment with either 100 or 200 mg/kg Kevetrin IV on Day 0 are shown.
# (§3) The mice were observed daily for any adverse affects. Mice body weights were taken prior to treatment and every other day during and post treatment. If an animal became unwell, any treatment of that animal was suspended. If there was no recovery, the animal was sacrificed. […] Mice tumor size measurements were taken prior to treatment and every other day during and post treatment. The same scientist was responsible for taking the tumor measurements throughout the study.
# (§4) The dosing procedure began the day the mice were randomized and grouped. The dose was administered, as discussed in the following paragraph, on days 7, 9 and 11 following tumor implantation. Each dose was administered via the tail vein.
# When Kevetrin was administered intravenously (IV) to animals bearing tumors, the weight loss due to the administration of the compound was within acceptable limits. […] Both these concentrations may be used to establish the efficacy of Kevetrin.
# [17] = test system: MDA-MB-231 human breast carcinoma; assay: Xenograft efficacy in nude mice; type: in vivo
# Protocol: MDA-MB-231 human breast carcinoma bearing mice were treated with 200 mg/kg Kevetrin IV days 7, 9, and 11 compared to 22 mg/kg Taxol IV Days 7, 9, 11 and 13.
# (§5) The cells were cultured in 10% FBS RPMI medium. The cells were obtained at passage 5 for further expansion for this efficacy study. Nude mice (Nu/Nu), both male (20 to 24 g) and female (19 to 22 g), were purchased at 6 to 8 weeks old from Charles River Laboratories. These mice were naïve at the beginning of the study and were identified by ear punching. The mice were left for five days to become acclimated to their new environment. Mice were implanted with human tumor cells in a 50:50 mix of RPMI:Matrigel subcutaneously in the right flank of each mouse. Dosing began when tumors reached an average volume of 100 mm^3.
# as §3
# (§6) Nude mice were implanted with 5×10^6 tumor cells in a 50:50 mix of RPMI:Matrigel subcutaneously in the right flank of each mouse. […]
# [18] = test system: HT-29 colon carcinoma; assay: Xenograft efficacy in nude mice; type: in vivo
# Protocol: HT-29 tumor bearing nude mice were treated with either 200 mg/kg Kevetrin IV or 5-FU on Days 7, 9, and 11.
# as §5, §3, §6
# [19] = test system: PC-3 human prostate cancer; assay: Xenograft efficacy in nude mice; type: in vivo
# Protocol: PC-3 tumor bearing nude mice were treated with either 200 mg/kg Kevetrin IV on Days 7, 9, 11 or 10 mg/kg cisplatin on Day 7.
# as §5, §3, §6
# [20] = test system: HCT-15 human colon carcinoma with P-glycoprotein mediated resistance; assay: Xenograft efficacy in nude mice; type: in vivo
# Protocol: HCT-15 tumor bearing nude mice were treated with either 200 mg/kg Kevetrin IV on Days 7, 9, 11 or 22 mg/kg Taxol on Days 7, 9, 11 and 13 post tumor.
# [21] = test system: A549 multi-drug resistant human lung carcinoma; assay: Xenograft efficacy in nude mice; type: in vivo
# Protocol: Nude mice were implanted with 5×10^6 tumor cells in a 50:50 mix of RPMI:Matrigel subcutaneously in the right flank of each mouse. Dosing began when tumors reached an average volume of 100 mm^3, usually reached by day 14 post implant, and was carried out for 8 days. […]
# [22] = test system: NCI-H1975 multi-drug resistant human lung carcinoma; assay: Xenograft efficacy in nude mice; type: in vivo
# Protocol: as §5, §3
# Nude mice were implanted with 5×10^6 tumor cells in a 50:50 mix of RPMI:Matrigel subcutaneously in the right flank of each mouse. Dosing began when tumors reached an average volume of 100 mm^3, usually reached by day 14 post implant, and was carried out for 8 days. A necropsy was performed 41 days after treatment ended.
# as §4
# Efficacy of Kevetrin 200 mg/kg Days 7, 9, & 11 Against Taxol at 22 mg/kg on Days 7, 9, 11 & 13 in NCI-H1975 Multi-Drug Resistant Human Lung Carcinoma.
# The animals were implanted subcutaneously with another multi-drug resistant human lung carcinoma and the compounds were injected IV as per the schedule. […] The tumor growth was delayed about 9 days for Taxol treated animals and about 24 days more than the untreated controls. The results are depicted in FIG. 9.
# [23] = 200 mg/kg Kevetrin IV days 7, 9, 11
# [24] = Taxol 22 mg/kg IV days 7, 9, 11, 13
compound,measurement,setting,value
"Cl.N#CCCCSC(=N)N [Kevetrin, S-(3-cyanopropyl)isothiourea hydrochloride]",IC50,[1],6 µg/mL
same,IC50,[2],64 µg/mL
same,IC50,[3],21 µg/mL
same,IC50,[4],29 µg/mL
same,IC50,[5],52 µg/mL
same,IC50,[6],68 µg/mL
same,IC50,[7],12 µg/mL
same,IC50,[8],64 µg/mL
same,IC50,[9],58 µg/mL
same,IC50,[10],62 µg/mL
same,IC50,[11],~0.03 µg/mL
same,IC50,[12]; Homo sapiens,490 nM
same,time dependence of cytotoxicity,[13],Clear time-dependent cytotoxic effects
same,activity toward head and neck cancer cell lines,[14],showed activity toward all of the cell lines
same,activity toward leukemias,[15],comparatively limited activity
same,weight loss of the body weight,"[16]; 100 mg/kg intravenously on days 7, 9, and 11, tumor bearing mice",6.8%
same,weight loss of the body weight,"[16]; 200 mg/kg intravenously on days 7, 9, and 11, tumor bearing mice",9.3%
same,tumor growth delay more than the untreated control,[17]; [23],32 days
same,tumor growth delay more than the Taxol treated animals,"[17]; 200 mg/kg Kevetrin IV days 7, 9, 11 vs 22 mg/kg Taxol IV days 7, 9, 11, 13",12 days
same,tumor growth delay more than the untreated control,[18]; [23],33 days
same,tumor growth delay more than the 5-FU treated animals,"[18]; 200 mg/kg Kevetrin IV days 7, 9, 11 vs 5-FU",10 days
same,tumor growth delay more than the untreated control,[19]; [23],34 days
same,tumor growth delay more than the Cisplatin treated animals,"[19]; 200 mg/kg Kevetrin IV days 7, 9, 11 vs 10 mg/kg Cisplatin IP day 7",8 days
same,tumor growth delay more than the Taxol treated and the untreated control,[20]; [23],15 days
same,tumor growth delay more than the untreated controls,[21]; [23],about 26 days
same,tumor growth delay more than the untreated controls,[22]; [23],about 24 days
"CC(=O)O[C@H]1C(=O)[C@@]2(C)[C@H]([C@H](OC(=O)c3ccccc3)[C@]3(O)C[C@H](OC(=O)[C@H](O)[C@@H](NC(=O)c4ccccc4)c4ccccc4)C(C)=C1C3(C)C)[C@]1(OC(C)=O)CO[C@@H]1C[C@@H]2O [Taxol, reference compound]",effect on the cancer (in words),[20]; [24],little effect
same,effect on the cancer (in words),[21]; [24],no effect
same,effect on the cancer (in words),[22]; [24],limited effect
same,tumor growth delay,[22]; [24],about 9 days
"N.N.[Cl][Pt][Cl] [cisplatin, reference compound]",IC50,"[12]; MTT assay, continuous exposure for three doubling times",2100 nM
same,activity toward head and neck cancer cell lines,[14],active toward one of the three cell lines
